Results from ChEMBL document CHEMBL5385856, “Novel 1,4,5,6-tetrahydrocyclopenta[d]imidazole-5-carboxamide-based JNK3 inhibitors: Design, synthesis, molecular docking, and therapeutic potential in neurodegenerative diseases” (Eur J Med Chem, 2023).

target: Mitogen-activated protein kinase 10 (Homo sapiens, UniProt P53779); assay: Inhibition of JNK3 (unknown origin) using ATF2 as substrate incubated for 40 mins in presence of [gamma33P]ATP by scintillation counting analysis
Sequence (P53779 whole entry): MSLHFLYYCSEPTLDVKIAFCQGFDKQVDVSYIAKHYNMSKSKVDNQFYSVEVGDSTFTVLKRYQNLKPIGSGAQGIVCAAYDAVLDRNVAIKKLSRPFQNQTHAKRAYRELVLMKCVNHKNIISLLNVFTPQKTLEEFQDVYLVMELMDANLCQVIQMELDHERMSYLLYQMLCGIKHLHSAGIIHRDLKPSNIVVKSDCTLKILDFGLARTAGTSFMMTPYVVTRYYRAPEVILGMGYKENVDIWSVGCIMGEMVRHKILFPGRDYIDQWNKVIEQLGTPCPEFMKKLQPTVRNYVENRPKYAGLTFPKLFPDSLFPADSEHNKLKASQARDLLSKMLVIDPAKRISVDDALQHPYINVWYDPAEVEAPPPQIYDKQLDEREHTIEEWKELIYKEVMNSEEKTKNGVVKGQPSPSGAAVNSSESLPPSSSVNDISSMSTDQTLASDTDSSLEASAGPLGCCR

SMILES	IC50 [nM]
NC(=O)C1Cc2nc(-c3ccc4c(c3)OCO4)n(-c3ccnc(N[C@@H]4CCCN(C(=O)C5CC5)C4)n3)c2C1 (stereo partly drawn)	36.1
CNC(=O)C1Cc2nc(-c3ccc(Cl)c(Cl)c3)n(-c3ccnc(N[C@H]4CCN(C(=O)C5CC5)C4)n3)c2C1 (stereo partly drawn)	10.2
CCOC(=O)C1Cc2nc(-c3ccc4ccccc4c3)n(-c3ccnc(N[C@H]4CCN(C(=O)C5CC5)C4)n3)c2C1 (stereo partly drawn)	23.4
CCOC(=O)C1Cc2nc(-c3ccc4ccccc4c3)n(-c3ccnc(N[C@@H]4CCN(C(=O)C5CC5)C4)n3)c2C1 (stereo partly drawn)	6.82
NC(=O)C1Cc2nc(-c3ccc4c(c3)OCO4)n(-c3ccnc(N[C@H]4CCN(C(=O)C5CC5)C4)n3)c2C1 (stereo partly drawn)	135
CNC(=O)C1Cc2nc(-c3ccc(F)c(C(F)(F)F)c3)n(-c3ccnc(N[C@@H]4CCN(C(=O)C5CC5)C4)n3)c2C1 (stereo partly drawn)	300
NC(=O)C1Cc2nc(-c3ccc(F)c(C(F)(F)F)c3)n(-c3ccnc(N[C@@H]4CCN(C(=O)C5CC5)C4)n3)c2C1 (stereo partly drawn)	300
CNC(=O)C1Cc2nc(-c3ccc(F)c(C(F)(F)F)c3)n(-c3ccnc(N[C@@H]4CCCN(C(=O)C5CC5)C4)n3)c2C1 (stereo partly drawn)	700
NC(=O)C1Cc2nc(-c3ccc4ccccc4c3)n(-c3ccnc(N[C@@H]4CCCN(C(=O)C5CC5)C4)n3)c2C1 (stereo partly drawn)	1.72
CCOC(=O)C1Cc2nc(-c3ccc(Cl)c(Cl)c3)n(-c3ccnc(N[C@H]4CCN(C(=O)C5CC5)C4)n3)c2C1 (stereo partly drawn)	28.2
CNC(=O)C1Cc2nc(-c3ccc(Cl)c(Cl)c3)n(-c3ccnc(N[C@@H]4CCCN(C(=O)C5CC5)C4)n3)c2C1 (stereo partly drawn)	4.83
CCOC(=O)C1Cc2nc(-c3ccc(F)c(C(F)(F)F)c3)n(-c3ccnc(N[C@H]4CCCN(C(=O)C5CC5)C4)n3)c2C1 (stereo partly drawn)	52.8
CCOC(=O)C1Cc2nc(-c3ccc(Cl)c(Cl)c3)n(-c3ccnc(N[C@@H]4CCN(C(=O)C5CC5)C4)n3)c2C1 (stereo partly drawn)	4.33
